Data published in PubChem BioAssay (NCI).
Values joined by “and” are separate entries in the source; they are usually repeats but may differ in a detail not shown here. Identical values can stand only once.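 Each compound was tested at five concentrations against cells in 96-well plates for 48 hours. GI50: concentration for 50% inhibition of growth. TGI is the concentration that stops growth completely.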

Tests used:
Assay in all cases: NCI tumour cell line growth inhibition, 48 h
[1] = tested on: UACC-257 melanoma
[2] = tested on: 786-0 renal
[3] = tested on: NCI-H23 lung
[4] = tested on: OVCAR-3 ovarian
[5] = tested on: SNB-75 CNS
[6] = tested on: HT29 colon
[7] = tested on: HOP-18 NSCLC
[8] = tested on: SK-MEL-28 melanoma
[9] = tested on: CAKI-1 renal
[10] = tested on: OVCAR-4 ovarian
[11] = tested on: SK-OV-3 ovarian
[12] = tested on: NCI-H226 lung
[13] = tested on: K-562 leukemia
[14] = tested on: CCRF-CEM leukemia
[15] = tested on: LOX IMVI melanoma
[16] = tested on: A549 NSCLC
[17] = tested on: SK-MEL-2 melanoma
[18] = tested on: SF-268 CNS
[19] = tested on: OVCAR-5 ovarian
[20] = tested on: IGROV1 ovarian
[21] = tested on: DLD-1 colon
[22] = tested on: M19-MEL melanoma
[23] = tested on: SNB-78 CNS
[24] = tested on: NCI-H522 lung
[25] = tested on: COLO 205 colon
[26] = tested on: UACC-62 melanoma
[27] = tested on: HCT-116 colon
[28] = tested on: U251 CNS
[29] = tested on: SR leukemia
[30] = tested on: EKVX NSCLC
[31] = tested on: OVCAR-8 ovarian
[32] = tested on: XF 498 CNS
[33] = tested on: SF-295 CNS
[34] = tested on: SN12C renal
[35] = tested on: HL-60(TB) leukemia
[36] = tested on: ACHN renal
[37] = tested on: M14 melanoma
[38] = tested on: MALME-3M melanoma
[39] = tested on: HOP-62 NSCLC
[40] = tested on: MOLT-4 leukemia
[41] = tested on: HCT-15 colon
[42] = tested on: SW-620 colon
[43] = tested on: SK-MEL-5 melanoma
[44] = tested on: HCC-2998 colon
[45] = tested on: KM12 colon
[46] = tested on: RPMI-8226 leukemia
[47] = tested on: DMS 114 small cell lung
[48] = tested on: DMS 273 small cell lung
[49] = tested on: HOP-92 NSCLC
[50] = tested on: UO-31 renal
[51] = tested on: NCI-H460 lung
[52] = tested on: LXFL 529 NSCLC
[53] = tested on: RXF-631 renal
[54] = tested on: TK-10 renal
[55] = tested on: SF-539 CNS
[56] = tested on: RXF 393 renal
[57] = tested on: KM20L2 colon
[58] = tested on: A498 renal

C[n+]1c2ccccc2cc2c(CNC(CCCN=C(N)N)C(=O)O)cccc21 (configuration not stated)
GI50 [1]: 1.98 µM
TGI [1]: 3.9 µM
GI50 [2]: 0.443 µM
TGI [2]: 2.19 µM and 1.59 µM
GI50 [3]: 4.19 µM
TGI [3]: 18.4 µM
GI50 [4]: 1.57 µM
TGI [4]: 6.36 µM and 4.58 µM
GI50 [5]: 1.82 µM
TGI [5]: 10.8 µM
GI50 [6]: 0.339 µM
TGI [6]: 1.14 µM and 5.85 µM
TGI [7]: 15.5 µM
TGI [8]: 3.65 µM
TGI [9]: 2.07 µM
TGI [10]: 23.9 µM
GI50 [11]: 6.15 µM
TGI [11]: 17.9 µM
GI50 [12]: 7.76 µM
TGI [12]: 7.63 µM and 35.8 µM
GI50 [13]: 0.485 µM
TGI [13]: 1.09 µM and 7.63 µM
TGI [14]: 0.555 µM
TGI [15]: 1.92 µM
GI50 [16]: 4.11 µM
TGI [16]: 14.6 µM
GI50 [17]: 0.957 µM
TGI [17]: 7.25 µM
GI50 [18]: 0.394 µM
TGI [18]: 0.846 µM and 1.47 µM
GI50 [19]: 14.4 µM
TGI [19]: 27.4 µM
GI50 [20]: 4.09 µM
TGI [20]: 19.1 µM
GI50 [21]: 0.481 µM
TGI [21]: 1.32 µM and 1.74 µM
GI50 [22]: 4.23 µM
TGI [22]: 2.26 µM and 17 µM
GI50 [23]: 5.8 µM
TGI [23]: 7.93 µM and 35.5 µM
GI50 [24]: 0.157 µM
TGI [24]: 2.78 µM and 0.342 µM
TGI [25]: 0.686 µM
TGI [26]: 2.32 µM
GI50 [27]: 0.343 µM
TGI [27]: 1.26 µM and 1.07 µM
GI50 [28]: 2.12 µM
TGI [28]: 4.28 µM and 6.85 µM
GI50 [29]: 0.22 µM
TGI [29]: 0.468 µM and 0.582 µM
GI50 [30]: 2.68 µM
TGI [30]: 10.2 µM
GI50 [31]: 2.42 µM
TGI [31]: 5.11 µM and 7.74 µM
GI50 [32]: 2.46 µM
TGI [32]: 3.5 µM and 4.02 µM
GI50 [33]: 5.03 µM
TGI [33]: 17.5 µM
TGI [34]: 2.18 µM and 2.99 µM
GI50 [35]: 0.187 µM
TGI [35]: 0.488 µM and 0.882 µM
GI50 [36]: 0.486 µM
TGI [36]: 1.83 µM and 2.05 µM
GI50 [37]: 2.86 µM
TGI [37]: 15.1 µM
GI50 [38]: 3.48 µM
TGI [38]: 4.54 µM and 10.7 µM
GI50 [39]: 9.22 µM
TGI [39]: 6.88 µM and 22 µM
TGI [40]: 0.852 µM
GI50 [41]: 0.551 µM
TGI [41]: 1.44 µM and 2.52 µM
TGI [42]: 1.78 µM
GI50 [43]: 5.33 µM
TGI [43]: 17.8 µM
GI50 [44]: 5.14 µM
TGI [44]: 5.67 µM and 16.7 µM
TGI [45]: 1.72 µM and 1.57 µM
GI50 [46]: 0.327 µM
TGI [46]: 0.679 µM and 1.56 µM
GI50 [47]: 1.62 µM
TGI [47]: 1.16 µM and 3.36 µM
GI50 [48]: 0.441 µM
TGI [48]: 8.77 µM and 1.53 µM
GI50 [49]: 0.327 µM
TGI [49]: 0.991 µM
GI50 [50]: 10.2 µM
TGI [50]: 2.43 µM and 22 µM
GI50 [51]: 3.42 µM
TGI [51]: 5 µM and 13.9 µM
GI50 [52]: 0.659 µM
TGI [52]: 2.12 µM and 2.14 µM
TGI [53]: 12.6 µM
GI50 [54]: 0.967 µM
TGI [54]: 2.07 µM and 2.35 µM
TGI [55]: 2.66 µM and 2.91 µM
GI50 [56]: 2.22 µM
TGI [56]: 1.34 µM and 4.78 µM
GI50 [57]: 0.346 µM
TGI [57]: 12.3 µM
TGI [58]: 8.7 µM

CC/C(=N\NS(=O)(=O)c1ccccc1)c1ccccc1
TGI [1]: > 100 µM
TGI [2]: > 100 µM
TGI [3]: > 100 µM
TGI [4]: > 100 µM
TGI [5]: > 100 µM
TGI [6]: > 100 µM
TGI [7]: > 100 µM
TGI [8]: > 100 µM
TGI [9]: > 100 µM
TGI [10]: > 100 µM
TGI [11]: > 100 µM
TGI [12]: > 100 µM
TGI [13]: > 100 µM
TGI [14]: > 100 µM
TGI [15]: > 100 µM
TGI [16]: > 100 µM
TGI [17]: > 100 µM
TGI [18]: > 100 µM
TGI [19]: > 100 µM
TGI [20]: > 100 µM
TGI [21]: > 100 µM
TGI [22]: > 100 µM
TGI [23]: > 100 µM
TGI [25]: > 100 µM
TGI [26]: > 100 µM
TGI [27]: > 100 µM
TGI [28]: > 100 µM
TGI [29]: > 100 µM
TGI [30]: > 100 µM
TGI [31]: > 100 µM
TGI [32]: > 100 µM
TGI [33]: > 100 µM
TGI [34]: > 100 µM
TGI [35]: > 100 µM
TGI [36]: > 100 µM
TGI [37]: > 100 µM
TGI [38]: > 100 µM
TGI [39]: > 100 µM
TGI [40]: > 100 µM
TGI [41]: > 100 µM
TGI [42]: > 100 µM
TGI [43]: > 100 µM
TGI [44]: > 100 µM
TGI [45]: > 100 µM
TGI [46]: > 100 µM
TGI [48]: > 100 µM
TGI [49]: > 100 µM
TGI [50]: > 100 µM
TGI [51]: > 100 µM
TGI [52]: > 100 µM
TGI [53]: > 100 µM
TGI [54]: > 100 µM
TGI [55]: > 100 µM
TGI [56]: > 100 µM
TGI [57]: > 100 µM
TGI [58]: > 100 µM
